Measured values taken from PubChem BioAssay AID330 (DTP/NCI, 2004).
Values joined by “and” are separate entries in the source; they are usually repeats but may differ in a detail not shown here. Equal entries are not always repeated. Toxic doses and inconclusive results are not listed. How the source made its calls: active means survival T/C of 150% or more; inactive means T/C below 125% in these data.

Test system: P388 leukemia ip, CD2F1 mice, survival T/C
Assay: NCI In Vivo Anticancer Drug Screen. Data for tumor model P388 Leukemia (intraperitoneal) in CD2F1 (CDF1) mice
Settings: endpoint: median survival time, higher = longer survival
Summary of the method: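 Mice carrying the transplanted tumor received test compound or vehicle. Survival was recorded in each group, and the value is the treated-group measurement divided by that of the vehicle-treated control group.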

[1] = dose: 100.0 mg/kg/injection, schedule: Q01DX009 (ip), vehicle: saline with Tween-80
[2] = dose: 100.0 mg/kg/injection, schedule: Q04DX003 (ip), vehicle: saline with Tween-80
[3] = dose: 200.0 mg/kg/injection, schedule: Q01DX009 (ip), vehicle: saline with Tween-80
[4] = dose: 200.0 mg/kg/injection, schedule: Q04DX003 (ip), vehicle: saline with Tween-80
[5] = dose: 50.0 mg/kg/injection, schedule: Q01DX005 (ip), vehicle: saline with Tween-80
[6] = dose: 50.0 mg/kg/injection, schedule: Q01DX009 (ip), vehicle: saline with Tween-80
[7] = dose: 50.0 mg/kg/injection, schedule: Q01DX005 (ip), vehicle: Klucel (hydroxypropylcellulose) (HPC)
[8] = dose: 100.0 mg/kg/injection, schedule: Q01DX009 (ip), vehicle: Klucel (hydroxypropylcellulose) (HPC)
[9] = dose: 100.0 mg/kg/injection, schedule: Q04DX002 (ip), vehicle: saline with Tween-80
[10] = dose: 200.0 mg/kg/injection, schedule: Q04DX002 (ip), vehicle: saline with Tween-80
[11] = dose: 50.0 mg/kg/injection, schedule: Q04DX003 (ip), vehicle: saline with Tween-80

Measured: T/C

COc1ccccc1N1C(=O)CSC1=S
inactive: [1] 86 % of control | [2] 90 % of control | [3] 90 % of control | [4] 90 % of control | dose: 400.0 mg/kg/injection, schedule: Q04DX003 (ip), vehicle: saline with Tween-80 100 % of control

C1CNCCN1
inactive: dose: 12.5 mg/kg/injection, schedule: Q01DX009 (ip), vehicle: saline 113 % of control and 96 % of control | dose: 12.5 mg/kg/injection, schedule: Q01DX009 (ip), vehicle: suspension in saline 93 % of control | dose: 25.0 mg/kg/injection, schedule: Q01DX009 (ip), vehicle: saline 114 % of control and 96 % of control | dose: 50.0 mg/kg/injection, schedule: Q01DX009 (ip), vehicle: saline 94 % of control and 97 % of control | dose: 100.0 mg/kg/injection, schedule: Q01DX009 (ip), vehicle: saline 89 % of control | dose: 100.0 mg/kg/injection, schedule: Q01DX009 (ip), vehicle: suspension in saline 97 % of control | dose: 150.0 mg/kg/injection, schedule: Q01DX009 (ip), vehicle: saline 100 % of control and 114 % of control | dose: 150.0 mg/kg/injection, schedule: Q01DX009 (ip), vehicle: suspension in saline 93 % of control

CCN(CC)CCN(CC)c1ccccc1
inactive: [5] 105 % of control | dose: 100.0 mg/kg/injection, schedule: Q01DX005 (ip), vehicle: saline with Tween-80 102 % of control

ClCCN(CCCl)c1ccc(/C=N/Nc2ccnc3cc(Cl)ccc23)cc1
inactive: [6] 95 % of control | [1] 101 % of control | [3] 93 % of control

C/C=C(\C)C(=O)Nc1c(C)cccc1Cl
inactive: dose: 100.0 mg/kg/injection, schedule: Q04DX002 (ip), vehicle: Klucel (hydroxypropylcellulose) (HPC) 106 % of control | dose: 200.0 mg/kg/injection, schedule: Q04DX002 (ip), vehicle: Klucel (hydroxypropylcellulose) (HPC) 104 % of control

CC(C)(C)SC(=O)C1CCCCC1
inactive: [6] 103 % of control | [1] 104 % of control

O=C1C=CC(=O)C(c2ccccc2)=C1
inactive: [7] 100 % of control | dose: 100.0 mg/kg/injection, schedule: Q01DX005 (ip), vehicle: Klucel (hydroxypropylcellulose) (HPC) 105 % of control | dose: 200.0 mg/kg/injection, schedule: Q01DX005 (ip), vehicle: Klucel (hydroxypropylcellulose) (HPC) 112 % of control

O=c1cc(O)c1=O
inactive: dose: 0.78 mg/kg/injection, schedule: Q01DX009 (ip), vehicle: saline 96 % of control | dose: 1.56 mg/kg/injection, schedule: Q01DX009 (ip), vehicle: saline 109 % of control | dose: 3.13 mg/kg/injection, schedule: Q01DX009 (ip), vehicle: saline 91 % of control | dose: 6.25 mg/kg/injection, schedule: Q01DX009 (ip), vehicle: saline 98 % of control

COC(SC)(C(=O)O)c1cc(-c2c(Cl)cccc2Cl)no1 (configuration not stated)
inactive: dose: 60.0 mg/kg/injection, schedule: Q01DX005 (ip), vehicle: saline with Tween-80 96 % of control | dose: 120.0 mg/kg/injection, schedule: Q01DX005 (ip), vehicle: saline with Tween-80 93 % of control | dose: 240.0 mg/kg/injection, schedule: Q01DX005 (ip), vehicle: saline with Tween-80 112 % of control

Cc1cc(C)c(CCl)c(C)c1CCl
inactive: dose: 25.0 mg/kg/injection, schedule: Q01DX009 (ip), vehicle: Klucel (hydroxypropylcellulose) (HPC) 106 % of control | [8] 100 % of control

O=C(/C=C\c1ccc([N+](=O)[O-])cc1)c1ccccc(=O)c1O
inactive: dose: 12.5 mg/kg/injection, schedule: Q01DX001 (ip), vehicle: Klucel (hydroxypropylcellulose) (HPC) 95 % of control | dose: 25.0 mg/kg/injection, schedule: Q01DX001 (ip), vehicle: Klucel (hydroxypropylcellulose) (HPC) 100 % of control | dose: 50.0 mg/kg/injection, schedule: Q01DX001 (ip), vehicle: Klucel (hydroxypropylcellulose) (HPC) 99 % of control | dose: 100.0 mg/kg/injection, schedule: Q01DX001 (ip), vehicle: Klucel (hydroxypropylcellulose) (HPC) 98 % of control

CC1(C)OC(=O)C(CC(=O)O)O1 (configuration not stated)
inactive: dose: 60.0 mg/kg/injection, schedule: Q01DX005 (ip), vehicle: saline 105 % of control | dose: 120.0 mg/kg/injection, schedule: Q01DX005 (ip), vehicle: saline 100 % of control | dose: 240.0 mg/kg/injection, schedule: Q01DX005 (ip), vehicle: saline 100 % of control

COc1ccc2nccc(C(=O)CCC3CCN(C(=O)c4ccc([N+](=O)[O-])cc4)CC3C(Br)CBr)c2c1 (configuration not stated)
inactive: [9] 108 % of control | [10] 105 % of control

CC(=O)N/N=C/C=C/c1ccccc1
inactive: dose: 3.13 mg/kg/injection, schedule: Q01DX009 (ip), vehicle: saline with Tween-80 117 % of control | dose: 6.25 mg/kg/injection, schedule: Q01DX009 (ip), vehicle: saline with Tween-80 106 % of control | dose: 12.5 mg/kg/injection, schedule: Q01DX009 (ip), vehicle: saline with Tween-80 104 % of control

O=c1cc(-c2ccccc2)c2ccc(O)c(CN(CCO)CCO)c2o1
inactive: [9] 89 % of control | [10] 89 % of control

COc1cc(CNNc2ccc(NC(C)=O)cc2N)ccc1OC(C)=O
inactive: dose: 25.0 mg/kg/injection, schedule: Q04DX003 (ip), vehicle: saline with Tween-80 94 % of control | [11] 91 % of control | [2] 86 % of control

O=C(NN=C1c2ccccc2-c2ccccc21)Nc1ccccc1
inactive: [6] 95 % of control | [1] 96 % of control | [3] 96 % of control

O=C(COc1ccc([N+](=O)[O-])cc1)Nc1cccnc1
inactive: [11] 98 % of control | [2] 98 % of control | [4] 99 % of control

COC(=O)c1n[nH]nc1CC(N)=O
inactive: dose: 50.0 mg/kg/injection, schedule: Q01DX005 (ip), vehicle: saline 105 % of control | dose: 100.0 mg/kg/injection, schedule: Q01DX005 (ip), vehicle: saline 105 % of control | dose: 200.0 mg/kg/injection, schedule: Q01DX005 (ip), vehicle: saline 103 % of control

CC(C)(C)c1cc(CCc2nc(CCc3cc(C(C)(C)C)c(O)c(C(C)(C)C)c3)nc(CCc3cc(C(C)(C)C)c(O)c(C(C)(C)C)c3)n2)cc(C(C)(C)C)c1O
inactive: dose: 50.0 mg/kg/injection, schedule: Q01DX009 (ip), vehicle: Klucel (hydroxypropylcellulose) (HPC) 92 % of control | [8] 88 % of control | dose: 200.0 mg/kg/injection, schedule: Q01DX009 (ip), vehicle: Klucel (hydroxypropylcellulose) (HPC) 93 % of control

COc1ccc(-c2coc3cc(OC4OC(CO)C(O)C(O)C4O)cc(O)c3c2=O)cc1 (configuration not stated)
inactive: dose: 25.0 mg/kg/injection, schedule: Q01DX009 (ip), vehicle: saline with Tween-80 98 % of control | [6] 92 % of control | [1] 94 % of control

C=Cn1c([N+](=O)[O-])cnc1/C=C/c1ccc(C(=O)NCCO)cc1
inactive: [9] 96 % of control | [10] 93 % of control | dose: 400.0 mg/kg/injection, schedule: Q04DX002 (ip), vehicle: saline with Tween-80 93 % of control

COc1ccc2c3c([nH]c2c1)[C@H](CC(C)(C)O)N1C(=O)[C@@H]2CCCN2C(=O)[C@]1(O)[C@H]3O
inactive: dose: 6.25 mg/kg/injection, schedule: Q01DX005 (ip), vehicle: Klucel (hydroxypropylcellulose) (HPC) 100 % of control | dose: 12.5 mg/kg/injection, schedule: Q01DX005 (ip), vehicle: Klucel (hydroxypropylcellulose) (HPC) 105 % of control | dose: 25.0 mg/kg/injection, schedule: Q01DX005 (ip), vehicle: Klucel (hydroxypropylcellulose) (HPC) 108 % of control | [7] 116 % of control

CC(/C=N/NC(=O)C[n+]1ccccc1)=N/NC(=O)C[n+]1ccccc1
inactive: dose: 3.12 mg/kg/injection, schedule: Q01DX005 (ip), vehicle: saline 96 % of control and 98 % of control | dose: 6.25 mg/kg/injection, schedule: Q01DX005 (ip), vehicle: saline 97 % of control and 98 % of control | dose: 12.5 mg/kg/injection, schedule: Q01DX005 (ip), vehicle: saline 99 % of control and 97 % of control | dose: 25.0 mg/kg/injection, schedule: Q01DX005 (ip), vehicle: saline 99 % of control and 101 % of control | [5] 95 % of control

NNC(=O)CCC(N)C(=O)O (configuration not stated)
inactive: dose: 50.0 mg/kg/injection, schedule: Q01DX009 (ip), vehicle: saline sonified 100 % of control | [11] 95 % of control | dose: 100.0 mg/kg/injection, schedule: Q01DX009 (ip), vehicle: saline sonified 113 % of control | [2] 90 % of control | [4] 109 % of control

N#CCOc1ccccc1
inactive: dose: 3.12 mg/kg/injection, schedule: Q01DX009 (ip), vehicle: other 101 % of control | dose: 6.25 mg/kg/injection, schedule: Q01DX009 (ip), vehicle: other 102 % of control | dose: 12.5 mg/kg/injection, schedule: Q01DX009 (ip), vehicle: other 99 % of control | dose: 25.0 mg/kg/injection, schedule: Q01DX009 (ip), vehicle: other 106 % of control
